The subject of experiment [1] is Bacillus subtillis ATCC 6501. As to the kind of experiment: microbe, parasite or virus in culture. It counts as cell-based. Conditions: ATCC6501, liquid YPD medium, OD540 up to 24 hours, read-out: minimal inhibitory concentration.
Experiment [2] relates to Ralstonia solanacearum KACC 10475. As to the kind of experiment: microbe, parasite or virus in culture. The experiment is classed as cell-based.
Experiment [3] concerns Pseudomonas syringae pv. sesami KACC 10649. The experiment is classed as cell-based. Conditions: liquid medium; Gram negative; FIG. 8.
Experiment [4] has as its system Pseudomonas syringae pv. actinidae KACC 10659. The experiment is classed as cell-based. Particulars: liquid medium; Gram negative; FIG. 8.
In the next experiment the test system is Erwinia sp. KACC 10207. It counts as cell-based. Conditions: liquid medium; Gram negative; FIG. 8.
For experiment [5], the system named is Pseudomonas syringae pv. syringae KACC 10361. It counts as cell-based. Conditions: liquid medium; Gram negative; FIG. 8.
Experiment [6] concerns Corynebacterium glutamicum KACC 10784. The experiment is classed as cell-based. Particulars: liquid medium; Gram positive; FIG. 8.
Experiment [7] has as its system Xanthomonas axonopodis pv. citri KACC 10443. Put plainly: Growth inhibition in liquid medium 2. It counts as cell-based. Particulars: Gram negative, FIG. 8.
The test system of experiment [8] is Xanthomonas campestris KACC 10490. It counts as cell-based. Conditions: liquid medium; Gram negative; FIG. 8.
Experiment [9] deals with Escherichia coli ATCC 8739. Put plainly: Antibacterial activity on solid agar medium 2. Particulars: Gram negative, FIG. 7.
In experiment [10] the test system is Staphylococcus epidermidis KCTC 1917. Put plainly: Antibacterial activity on solid agar medium 2. Particulars: Gram positive, FIG. 7.
The test system of experiment [11] is Listeria monocytogenes ATCC 19111. Put plainly: Antibacterial activity on solid agar medium 2. Conditions: Gram positive, FIG. 7.
For experiment [12], the system named is Staphylococcus aureus ATCC 6538. Put plainly: Antibacterial activity on solid agar medium 2. Particulars: Gram positive, FIG. 7.
Experiment [13] has as its system Bacillus subtilis ATCC 6501. Put plainly: Antibacterial activity on solid agar medium 2. Conditions: Gram positive, FIG. 7.
The subject of experiment [14] is Salmonella typhimurium KCTC 2515. Put plainly: Antibacterial activity on solid agar medium (clear zone around filter paper).
Experiment [15] concerns Staphylococcus aureus KCTC 1621. Described as above. Particulars: 5 mg/spot, similar level with Bactroban (3 mg Mupirocin), FIG. 5.

Turning to `CCCCCCCC[C@H](O)/C=C/[C@@H](O)CCCCCC(=O)O` [DOD, 7,10-dihydroxy-8(E)-octadecenoic acid], the MIC in [1] was under 125 µg/mL; in [2] (Ralstonia solanacearum, KACC10475, 24 h, read-out: minimal inhibitory concentration) it was under 125 µg/mL. Moreover, the growth inhibitory effect result in experiment [2] (liquid medium, Gram negative, FIG. 8) is recorded as “had growth inhibitory effect”; in experiment [3], “had growth inhibitory effect”; in experiment [4] it was “had growth inhibitory effect”; in the experiment with Erwinia sp. KACC 10207, “had growth inhibitory effect”; in experiment [5] it was “had growth inhibitory effect”; in experiment [6], “had growth inhibitory effect”. Further, the growth inhibitory effect result in experiment [7] and in experiment [8] was “had growth inhibitory effect” each time. Also, the antibacterial activity result in experiment [9] is on record as “exhibited antibacterial activity”; in [10] it was “exhibited antibacterial activity”; in experiment [11], “exhibited antibacterial activity”; in experiment [12], “exhibited antibacterial activity”; in experiment [13], “exhibited antibacterial activity”; in [14] (Gram negative, FIG. 7), “exhibited antibacterial activity”. Besides, the “antibacterial activity (clear zone)” value in experiment [14] (5 mg/spot, similar level with Bactroban (3 mg Mupirocin), FIG. 5) is listed as “high antibacterial activity”; in experiment [15], “high antibacterial activity”.

The values are drawn from US8053473B2, “Antibacterial agent comprising 7, 10-dihydroxy-8(E)-octadecenoic acid” (Kyung Pook National University Industry-Academic …, priority 2007, dated 2011).
